# Source: patent US3941842A, “P,P'-Disubstituted α-trichloromethylbenzylanilines” (priority 1972, dated 1976)
# “Also recorded” adds a separate entry of the source. Like-named read-outs stand apart in the source and are kept apart here.
# Key:
# [1] = tested on: Female housefly; assay: Metabolism of 3H-ethoxyaniline by female RSP housefly; settings: for Female housefly, percent 3H in Excreta / Female housefly, percent 3H in Homogenate: 24 hr after topical 1.0 μg 3H-ethoxyaniline (compound III)
# Experimental: (§1) The compounds of the present invention were tested for insecticidal activity by standard methods, and compared with the insecticidal activities of DDT and symmetrical analogs of DDT, such methoxychlor. Toxicological methods for the determination of the topical LD50 values to adult female SNAIDM and RSP houseflies, Musca domestica L. and to Phormia regina, and LC50 values to Culex pipiens quinquefasciatus Say, and Anopheles albimanus Weid mosquitoes were described by Metcalf el al., 44 Bull. World Health Org. 363 (1971). The methods for evaluation of metabolism by mouse liver homogenate and by female RSP housefly and salt-marsh caterpillar larvae Estigmene acrea Drury, were described by Kapoor et al., 18 J. Agr. Food Chem. 1145 (1970). The techniques for model eocsystem evluation were described by Metcalf et al., 5 J. Environ. Sci. Tech. 709 (1971).
# (§2) The biodegradability of an insecticide may be measured by administering measured doses of a tritium labeled test insecticide to a subject. Some time later the subject is sacrificed, liquefied, and a sample of the liquefied insect is placed on a thin layer chromotagraphy (tlc) plate. The plate is developed in a suitable solvent and Rf values of the various compounds contained in the sample are measured against known Rf values of previously synthesized theoretical metabolic breakdown products. The amount of each metabolite present may thus be measured by measuring the ^3 H at each separately resolved spot on the tlc plate. A permanent record may be made by exposing film to the plate to form a ratioautograph.
# [2] = tested on: Salt-marsh caterpillar; assay: Metabolism of 3H-ethoxyaniline by salt-marsh caterpillar larvae; settings: for Salt-marsh caterpillar, percent 3H in Excreta / Salt-marsh caterpillar, percent 3H in Homogenate: 24 hr after feeding 0.5 mg 3H-ethoxyaniline (compound III)
# Experimental: as §1, §2
# [3] = Model ecosystem: distribution, ecological magnification and Biodegradability Index; settings: for Concentration of ethoxyaniline equivalents in Gambusia (fish) / Concentration of ethoxyaniline equivalents in Oedogonium (algae) / Concentration of ethoxyaniline equivalents in Physa (snail) / Concentration of ethoxyaniline equivalents in Culex (mosquito) / Concentration of ethoxyaniline equivalents in H2O: 5.0 mg 3H-ethoxyaniline to Sorghum; for biodegradability (in words): model ecosystem comparison
# Description: After the amounts of the various metabolites have been calculated and a determination is made as to which of the metabolites are to be designated as "polar" and which are to be designated as "non-polar", a Biodegradability Index (amount of polar metabolites/amount of nonpolar metabolites) may be calculated. Remembering that nonpolar compounds, such as DDT are readily soluble in the fatty tissues, but are not readily soluble in water based solutions, and that the cell fluid is essentially a water based solution, the lower the Biodegradability Index, the lower the amount of biodegradability of the compound. The higher the amount of polarity, the greater the likelihood that the polar compound will dissolve in water, a very polar compound, and be eliminated from the cell.
# The environmental fate of any new pesticide is a factor of paramount importance in determining how and where it might be used. The behavior of ^3 H-α-trichloromethyl-p-ethoxybenzyl-p-ethoxyaniline has been studied by the model ecosystem technique following application of 5.0 mg. of labeled compound to Sorghum plants. A summary of
# metabolites from the organisms in the model ecosystem after 33 days were
# identified by cochromatography with standards of known constitution, by
# appropriate chromogenic reagents, and by high-resolution mass
# spectrometry. The data of Table IV indicate the O-dealkylation of
# Food Chem. 1 (1972). Ethoxychlor was found in the snail to 58.6 ppm and in the fish to 0.92 ppm, along with its ethylene and the mono- and bis-phenols formed by O-dealkylation. The ecological magnification (E.M.) of ethoxychlor, defined as the ratio of the parent material in the fish to the concentration in the water, was 1500-fold as compared with an E.M. of only 0.7-fold for the ethoxyaniline.
# Comparing the Biodegradability Indices (B.I.=total recovered polar metabolites/total recovered nonpolar metabolites) the values are 0.44 for ethoxychlor and 2.0 for ethoxyaniline.
# [4] = Metabolism of 3H-labeled compound by mouse liver homogenate; settings: for Mouse liver, percent 3H in homogenate: 0.01 μM 3H-labeled compound III, 1 hr incubation, NADPH and nicotinamide
# Experimental: as §1, §2
# [5] = tested on: Musca domestica Snaidm; assay: Topical LD50 to adult female SNAIDM houseflies
# Experimental: as §1
# (§3) Since piperonyl butoxide serves to block the action of MFO, the synergized LD50 values express the intrinsic toxicity of the compounds. With the detoxifying action of MFO enzymes blocked, the intrinsic toxicity of the compounds can thus be measured.
# [6] = tested on: Musca domestica Rsp; assay: Topical LD50 to adult female RSP houseflies
# Experimental: as §1, §3
# [7] = tested on: Phormia regina; assay: whole plant or invertebrate; settings: topical
# Experimental: as §1, with “363 (1971).” left out, “Food Chem. 1145 (1970).” left out, “Tech.” for “Tech. 709 (1971).”
# as §3
# [8] = tested on: Culex fatigans larvae; assay: LC50 to Culex fatigans larvae; format: in vivo, Culex pipiens quinquefasciatus Say
# Description: (§4) World Health Org. 363 (1971). […] Food Chem. 1145 (1970). […] Sci. Tech. 709 (1971). The results are detailed in Table II. ##SPC1##
# [9] = tested on: Anopheles albimanus larvae; assay: LC50 to Anopheles albimanus larvae; format: in vivo, Anopheles albimanus Weid
# Description: as §4
# [10] = tested on: multifunction oxidase (MFO) enzymes; settings: background; cited from earlier work
# [11] = cited from earlier work
# [12] = tested on: insects; settings: background; cited from earlier work
# [13] = background; cited from earlier work
# [14] = synergistic ratio: LD50 alone/LD50 synergized with piperonyl butoxide
# [15] = female RSP housefly, topical 1.0 μg, 24 hr
# [16] = model ecosystem, Kapoor et al., 20(1) J. Agr. Food Chem. 1 (1972)
compound,measurement,setting,value
"CCOc1ccc(C(=O)C(Cl)Cl)cc1 [C2 H5 OC6 H4 C(O)CHCl2, p-ethoxydichloroacetophenone]","Female housefly, percent 3H in Excreta",[1],9.7%
same,"Female housefly, percent 3H in Homogenate",[1],10.4%
same,"Salt-marsh caterpillar, percent 3H in Excreta",[2],3.1%
same,"Salt-marsh caterpillar, percent 3H in Homogenate",[2],8.7%
same,Concentration of ethoxyaniline equivalents in Gambusia (fish),[3]; 33 days,0.28 ppm
same,Concentration of ethoxyaniline equivalents in Oedogonium (algae),[3]; 33 days,0.3 ppm
same,Concentration of ethoxyaniline equivalents in Physa (snail),[3]; 33 days,3.542 ppm
"CCOc1ccc(N)cc1 [C2 H5 OC6 H4 NH2, p-ethoxyaniline]","Female housefly, percent 3H in Excreta",[1],9.1%
same,"Female housefly, percent 3H in Homogenate",[1],8.3%
same,"Salt-marsh caterpillar, percent 3H in Excreta",[2],8.4%
same,"Salt-marsh caterpillar, percent 3H in Homogenate",[2],15.0%
same,"Mouse liver, percent 3H in homogenate",[4],13.7%
same,Concentration of ethoxyaniline equivalents in Culex (mosquito),[3]; 33 days,0.01 ppm
same,Concentration of ethoxyaniline equivalents in Gambusia (fish),[3]; 33 days,0.03 ppm
same,Concentration of ethoxyaniline equivalents in H2O,"[3]; H2O, 33 days",0.053 ppm
same,Concentration of ethoxyaniline equivalents in Oedogonium (algae),[3]; 33 days,0.42 ppm
same,Concentration of ethoxyaniline equivalents in Physa (snail),[3]; 33 days,2.556 ppm
"CCOc1ccc(NC(c2ccc(OCC)cc2)C(Cl)(Cl)Cl)cc1 (stereo not drawn) [Compound III, α-trichloromethyl-p-ethoxybenzyl-p-ethoxyaniline]",LD50,"[5]; Musca domestica, topical, read-out: Topical LD50, Musca domestica Snaidm, Alone",15.5 mg/kg
same,"Topical LD50, Musca domestica Snaidm, with pb","[5]; SNAIDM strain, synergized with piperonyl butoxide, topical",4.2 μg per g
same,"SR, Musca domestica Snaidm",[5]; [14],3.7
same,LD50,"[6]; Musca domestica, topical, read-out: Topical LD50, Musca domestica Rsp, Alone",20.5 mg/kg
same,"Topical LD50, Musca domestica Rsp, with pb","[6]; RSP strain, synergized with piperonyl butoxide, topical",6.5 μg per g
same,"SR, Musca domestica Rsp",[6]; [14],3.2
same,LD50,"[7]; Phormia regina, read-out: Topical LD50, Phormia regina, Alone",33.7 mg/kg
same,"Topical LD50, Phormia regina, with pb",[7]; synergized with piperonyl butoxide,9.7 μg per g
same,LC50 Culex fatigans larvae,[8],0.19 ppm
same,LC50 Anopheles albimanus larvae,[9],0.28 ppm
same,"Female housefly, percent 3H in Excreta",[1],22.9%
same,"Female housefly, percent 3H in Homogenate",[1],37.6%
same,3H recovered as body homogenate,[1]; [15],65%
same,3H recovered as body wash,[1]; [15],19.2%
same,3H recovered as excreta,[1]; [15],10%
same,recovery of the 3H,"[1]; female RSP housefly, topical 1.0 μg, 24 hr, total",94.2%
same,metabolic pathway in insect and mammal (in words),"[1]; insects (housefly, caterpillar) and mouse liver homogenate",metabolized in both the insect and the mammal by O-dealkylation to form both mono- and bis- phenols
same,3H recovered in excreta,"[2]; 4th instar larvae, 0.5 mg fed, 24 hr",75%
same,"Salt-marsh caterpillar, percent 3H in Excreta",[2],2.5%
same,"Salt-marsh caterpillar, percent 3H in Homogenate",[2],9.0%
same,"Mouse liver, percent 3H in homogenate",[4],30%
same,metabolic pathway (in words),"[4]; mouse liver homogenate, 1 hr",attacked by O-dealkylation to produce either one or both of the monophenolic derivatives
same,Concentration of ethoxyaniline equivalents in Culex (mosquito),[3]; 33 days,0.28 ppm
same,Concentration of ethoxyaniline equivalents in Gambusia (fish),[3]; 33 days,0.04 ppm
same,Concentration of ethoxyaniline equivalents in H2O,"[3]; H2O, 33 days",0.055 ppm
same,Concentration of ethoxyaniline equivalents in Oedogonium (algae),[3]; 33 days,1.09 ppm
same,Concentration of ethoxyaniline equivalents in Physa (snail),[3]; 33 days,22.68 ppm
same,biodegradability (in words),[3],substantially biodegradable; also recorded: by far superior in both E.M. and B.I
same,ecological magnification (E.M.),[3]; ratio of parent material in fish to concentration in water,0.7 fold
same,Total 3H in Culex (mosquito) (ethoxyaniline equivalents),"[3]; total 3H, Culex, 33 days",1.0 ppm
same,Total 3H in Gambusia (fish) (ethoxyaniline equivalents),"[3]; total 3H, Gambusia, 33 days",0.30 ppm
same,Total 3H in H2O (ethoxyaniline equivalents),"[3]; total 3H, H2O, 33 days",0.363 ppm
same,Total 3H in Oedogonium (algae) (ethoxyaniline equivalents),"[3]; total 3H, Oedogonium, 33 days",3.03 ppm
same,Total 3H in Physa (snail) (ethoxyaniline equivalents),"[3]; total 3H, Physa, 33 days",36.0 ppm
"Clc1ccc(C(c2ccc(Cl)cc2)C(Cl)Cl)cc1 [DDD, 1,1-dichloro-2,2-bis(p-chlorophenyl)ethane]",susceptibility to MFO enzymes (in words),[10],do not function on DDT and its metabolic derivatives DDE and DDD
"ClC(Cl)=C(c1ccc(Cl)cc1)c1ccc(Cl)cc1 [DDE, 1,1-dichloro-2,2-bis(p-chlorophenyl) ethylene]",susceptibility to MFO enzymes (in words),[10],do not function on DDT and its metabolic derivatives DDE and DDD
"CCOc1ccc(C(c2ccc(OCC)cc2)C(Cl)(Cl)Cl)cc1 [Ethoxychlor, 2,2-bis(p-ethoxyphenyl)-1,1,1-trichloroethane]",biodegradability (in words),[3],substantially biodegradable; also recorded: substantially more biodegradable than DDT
same,concentration found in the fish,[11]; [16],0.92 ppm
same,concentration found in the snail,[11]; [16],58.6 ppm
same,ecological magnification (E.M.),"[11]; ratio of parent material in fish to concentration in water, Kapoor et al.",1500 fold
same,Biodegradability Index (B.I.),"[11]; total recovered polar/total recovered nonpolar metabolites, ethoxychlor evaluated by Kapoor et al.",0.44
"Oc1ccc(NC(c2ccc(O)cc2)C(Cl)(Cl)Cl)cc1 (stereo not drawn) [HOC6 H4 NHCH(CCl3)C6 H4 OH, α-trichloromethyl-p-hydroxybenzyl-p-hydroxyaniline]","Female housefly, percent 3H in Excreta",[1],5.7%
same,"Female housefly, percent 3H in Homogenate",[1],8.4%
same,Concentration of ethoxyaniline equivalents in Gambusia (fish),[3]; 33 days,0.03 ppm
same,Concentration of ethoxyaniline equivalents in Physa (snail),[3]; 33 days,1.512 ppm
"CSc1ccc(C(c2ccc(SC)cc2)C(Cl)(Cl)Cl)cc1 [methiochlor, 1,1,1-trichloro-2,2-bis-(p-methiophenyl)ethane]",insecticidal activity (in words),[12],considerably less insecticidal activity than DDT towards other species of insects
same,susceptibility to MFO enzymes (in words),[10],readily attacked by MFO enzymes
"COc1ccc(C(c2ccc(OC)cc2)C(Cl)(Cl)Cl)cc1 [methoxychlor, 1,1,1-trichloro-,2,2-bis(p-methoxyphenyl)ethane]",accumulation in animal tissues (in words),[13],not generally accumulated in animal tissues
same,insecticidal activity (in words),[12],considerably less insecticidal activity than DDT towards other species of insects
same,susceptibility to MFO enzymes (in words),[10],readily attacked by MFO enzymes
"Cc1ccc(C(c2ccc(C)cc2)C(Cl)(Cl)Cl)cc1 [methylchlor, 1,1,1-trichloro-2,2-bis(p-methylphenyl)ethane]",insecticidal activity (in words),[12],considerably less insecticidal activity than DDT towards other species of insects
